Laboratory results from patent US20100266692A1, “NANOPARTICLES COMPRISING A NON-IONIZABLE POLYMER AND AN ANIONIC CELLULOSIC POLYMER” (priority 2007, published 2010).
Values after ≈ are worked out from the molar mass of the structure shown.

Experiments:
Log P of drug = format: physicochemical; conditions: octanol/water
Description: The first property of hydrophobic drugs is that they are extremely hydrophobic. Log P, defined as the base 10 logarithm of the ratio of the drug solubility in octanol to the drug solubility in water, is a widely accepted measure of hydrophobicity. By “extremely hydrophobic” is meant that the Log P value of the drug is at least 4.0, preferably at least 4.5, and most preferably at least 5.0. Log P may be measured experimentally or calculated using methods known in the art. When using a calculated value for Log P, the highest value calculated using any generally accepted method for calculating Log P is used. Calculated Log P values are often referred to by the calculation method, such as Clog P, Alog P, and Mlog P. The Log P may also be estimated using fragmentation methods, such as Crippen's fragmentation method (27 J. Chem. Inf. Comput. Sci. 21 (1987)); Viswanadhan's fragmentation method (29 J. Chem. Inf. Comput. Sci. 163 (1989)); or Broto's fragmentation method (19 Eur. J. Med. Chem.-Chim. Theor. 71 (1984). Preferably the Log P value is calculated by using the average value estimated using Crippen's, Viswanadhan's, and Broto's fragmentation methods.

[1] = Solubility of drug in water; format: physicochemical
[2] = Solubility in model fasted duodenal (MFD) solution; format: physicochemical; conditions: fassgf or other biorelevant, PBS containing 7.3 mM sodium taurocholic acid and 1.4 mM 1-palmitoyl-2-oleyl-sn-glycero-3-phosphocholine
[3] = Protocol: The polymer is a poorly aqueous soluble non-ionizable polymer. […] An appropriate PBS solution is an aqueous solution consisting of 20 mM sodium phosphate (Na2HPO4), 47 mM potassium phosphate (KH2PO4), 87 mM NaCl, and 0.2 mM KCl, adjusted to pH 6.5 with NaOH. A test to determine whether the polymer is poorly aqueous soluble may be performed as follows. The polymer is initially present in bulk powder form with average particle sizes of greater than about 1 micron. The polymer alone is administered at a concentration of 0.2 mg/mL to the PBS solution and stirred for approximately 1 hour at room temperature. Next, a nylon 0.45 μm filter is weighed, and the polymer solution is filtered. The filter is dried overnight at 40° C., and weighed the following morning. The amount of polymer dissolved is calculated from the amount of polymer added to the PBS solution minus the amount of polymer remaining on the filter (mg). […] First, 0.2 mg/mL of the polymer was added to a PBS solution consisting of 20 mM Na2HPO4, 47 mM KH2PO4, 87 mM NaCl, and 0.2 mM KCl, adjusted to pH 6.5 with NaOH. The polymer was stirred in the PBS solution for approximately 1 hour at room temperature. […] The amount of soluble polymer was calculated from the amount of polymer added to form the polymer solution minus the amount of polymer remaining on the filter.

Compound	logP (Log P of drug)	solubility [1] [µg/mL]	solubility [2] [µg/mL]	Amount Soluble at pH 6.5 [3] [mg/mL]
Cc1onc(-c2ccccc2)c1-c1ccc(S(N)(=O)=O)cc1 [Drug 1, 4-(5-methyl-3-phenyl-4-isoxazolyl) benzenesulfonamide, reference compound]	~3	~10 (≈ 31.8 µM)	–	–
CC[C@@H]1C[C@H](N(Cc2cc(C(F)(F)F)cc(C(F)(F)F)c2)C(C)=O)c2cc(C(F)(F)F)ccc2N1C(=O)OC(C)C [Drug 2, [2R,4S]-4-[acetyl-(3,5-bis-trifluoromethyl-benzyl)-amino]-2-ethyl-6-trifluoromethyl-3,4-dihydro-2H-quinoline-1-carboxylic acid isopropyl ester]	6.7	< 1	–	–
Cc1ccc(-c2cc(C(F)(F)F)nn2-c2ccc(S(N)(=O)=O)cc2)cc1 [Drug 3, 4-[5-(4-methylphenyl)-3-(trifluoromethyl)-1H-pyrazol-1-yl]benzenesulfonamide]	–	–	~40 (≈ 105 µM)	–
cellulose acetate	–	–	–	0.03
ethylcellulose	–	–	–	<0.001
